Test results reported in patent publication US9409884B2 (Rigel Pharmaceuticals, Inc., priority 2012, dated 2016).

biological target: AMPK; assay: AMPK activation, enzyme-linked immunosorbent assay; format: biochemical; settings: Table 13, compounds of Table 6
How it was run: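 AMPK activation by test compounds was measured by enzyme-linked immunosorbent assay.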

| Structure (SMILES) | EC50 [nM] |
| --- | --- |
| CS(=O)(=O)c1cccc(CN2CCN(C(=O)c3ccc4oc(C(=O)NC5CCN(Cc6ccc(C(F)(F)F)cc6)CC5)cc4c3)CC2)c1 [Compound 6-149, 5-(4-(3-(methylsulfonyl)benzyl)piperazine-1-carbonyl)-N-(1-(4-(trifluoromethyl)benzyl)piperidin-4-yl)benzofuran-2-carboxamide] | < 100 |
| CS(=O)(=O)c1cccc(CN2CCN(C(=O)c3ccc4oc(C(=O)NC5CCN(Cc6ccc(C#N)c(F)c6)CC5)cc4c3)CC2)c1 [Compound 6-150, N-(1-(4-cyano-3-fluorobenzyl)piperidin-4-yl)-5-(4-(3-(methylsulfonyl)benzyl)piperazine-1-carbonyl) benzofuran-2-carboxamide] | < 100 |
| CS(=O)(=O)c1cccc(CN2CCN(C(=O)c3ccc4oc(C(=O)NC5CCN(Cc6cccc(OC(F)(F)F)c6)CC5)cc4c3)CC2)c1 [Compound 6-151, 5-(4-(3-(methylsulfonyl)benzyl)piperazine-1-carbonyl)-N-(1-(3-(trifluoromethoxy)benzyl)piperidin-4-yl)benzofuran-2-carboxamide] | < 100 |
| CS(=O)(=O)c1cccc(CN2CCN(C(=O)c3ccc4oc(C(=O)NC5CCN(Cc6ccc(-n7cccn7)cc6)CC5)cc4c3)CC2)c1 [Compound 6-153, N-(1-(4-(1H-pyrazol-1-yl)benzyl)piperidin-4-yl)-5-(4-(3-(methylsulfonyl)benzyl)piperazine-1-carbonyl) benzofuran-2-carboxamide] | < 100 |
| COc1ccc(CN2CCC(NC(=O)c3cc4cc(C(=O)N5CCN(Cc6ccc(S(C)(=O)=O)cc6)CC5)ccc4o3)CC2)cc1F [Compound 6-154, N-(1-(3-fluoro-4-methoxybenzyl)piperidin-4-yl)-5-(4-(4-(methylsulfonyl)benzyl)piperazine-1-carbonyl) benzofuran-2-carboxamide] | < 100 |
| CS(=O)(=O)c1ccc(OC2CCN(C(=O)c3ccc4oc(C(=O)N[C@@H]5CCN(Cc6ccc(OC(F)(F)F)cc6)C[C@H]5F)cc4c3)CC2)cc1 [Compound 6-155, N-((3,4-trans)-3-fluoro-1-(4-(trifluoromethoxy)benzyl)piperidin-4-yl)-5-(4-(4-(methylsulfonyl)phenoxy)piperidine-1-carbonyl) benzofuran-2-carboxamide] | < 100 |
| CS(=O)(=O)c1ccc(CN2CCN(C(=O)c3ccc4oc(C(=O)NC5CCN(Cc6ccc(OC(F)(F)C(F)F)cc6)CC5)cc4c3)CC2)cc1 [Compound 6-156, 5-(4-(4-(methylsulfonyl)benzyl)piperazine-1-carbonyl)-N-(1-(4-(1,1,2,2-tetrafluoroethoxy)benzyl)piperidin-4-yl)benzofuran-2-carboxamide] | < 100 |
| CS(=O)(=O)c1ccc(CN2CCN(C(=O)c3ccc4oc(C(=O)NC5CCN(Cc6cccc(OC(F)(F)C(F)F)c6)CC5)cc4c3)CC2)cc1 [Compound 6-157, 5-(4-(4-(methylsulfonyl)benzyl)piperazine-1-carbonyl)-N-(1-(3-(1,1,2,2-tetrafluoroethoxy)benzyl)piperidin-4-yl)benzofuran-2-carboxamide] | < 100 |
| CS(=O)(=O)c1ccc(CN2CCN(C(=O)c3ccc4oc(C(=O)NC5CCN(Cc6ccc(OC(F)(F)F)c(Cl)c6)CC5)cc4c3)CC2)cc1 [Compound 6-158, N-(1-(3-chloro-4-(trifluoromethoxy)benzyl)piperidin-4-yl)-5-(4-(4-(methylsulfonyl)benzyl)piperazine-1-carbonyl) benzofuran-2-carboxamide] | 100 to 1000 |
| CS(=O)(=O)c1ccc(CN2CCN(C(=O)c3ccc4oc(C(=O)NC5CCN(Cc6ccc(S(=O)(=O)N7CCCC7)cc6)CC5)cc4c3)CC2)cc1 [Compound 6-159, 5-(4-(4-(methylsulfonyl)benzyl)piperazine-1-carbonyl)-N-(1-(4-(pyrrolidin-1-ylsulfonyl)benzyl)piperidin-4-yl)benzofuran-2-carboxamide] | 1000 to 10000 |
| COc1ccc(CN2CCC(NC(=O)c3cc4cc(C(=O)N5CCN(Cc6ccc(S(=O)(=O)N7CCCC7)cc6)CC5)ccc4o3)CC2)cc1F [Compound 6-160, N-(1-(3-fluoro-4-methoxybenzyl)piperidin-4-yl)-5-(4-(4-(pyrrolidin-1-ylsulfonyl)benzyl)piperazine-1-carbonyl)benzofuran-2 - carboxamide] | < 100 |
| CCNS(=O)(=O)c1ccc(CN2CCN(C(=O)c3ccc4oc(C(=O)NC5CCN(Cc6ccc(OC)c(F)c6)CC5)cc4c3)CC2)cc1 [Compound 6-161, 5-(4-(4-(N-ethylsulfamoyl)benzyl)piperazine-1-carbonyl)-N-(1-(3-fluoro-4-methoxybenzyl)piperidin-4-yl)benzofuran-2-carboxamide] | < 100 |
| COc1ccc(CN2CCC(NC(=O)c3cc4cc(C(=O)N5CCN(Cc6ccc(S(=O)(=O)N(C)C)cc6)CC5)ccc4o3)CC2)cc1F [Compound 6-162] | < 100 |
| COc1ccc(CN2CCC(NC(=O)c3cc4cc(C(=O)N5CCN(Cc6ccc(S(=O)(=O)N7CCOCC7)cc6)CC5)ccc4o3)CC2)cc1F [Compound 6-163, N-(1-(3-fluoro-4-methoxybenzyl)piperidin-4-yl)-5-(4-(4-(morpholinosulfonyl)benzyl)piperazine-1-arbonyl) benzofuran-2-carboxamide] | < 100 |
| COc1ccc(CN2CCC(NC(=O)c3cc4cc(C(=O)N5CCC(Oc6ccc(S(C)(=O)=O)cc6)CC5)ccc4o3)CC2)cc1 [Compound 6-164, N-(1-(4-methoxybenzyl)piperidin-4-yl)-5-(4-(4-(methylsulfonyl)phenoxy)piperidine-1-carbonyl) benzofuran-2-carboxamide] | < 100 |

same assay, conditions: Table 14, compounds of Table 7

| Structure (SMILES) | EC50 [nM] |
| --- | --- |
| CS(=O)(=O)c1ccc(OC2CCN(C(=O)c3ccc(C(=O)Nc4ccc(Oc5ccc(S(F)(F)(F)(F)F)cc5)nc4)cn3)CC2)cc1 [Compound 7-1, 6-(4-(4-(methylsulfonyl)phenoxy)piperidine-1-carbonyl)-N-(6-(4-(pentafluorosulfanyl)phenoxy)pyridin-3-yl)nicotinamide] | 1000 to 10000 |
| CS(=O)(=O)c1ccc(OC2CCN(C(=O)c3ccc(C(=O)Nc4ccc(Oc5ccc(S(F)(F)(F)(F)F)cc5)nc4)nc3)CC2)cc1 [Compound 7-2, 5-(4-(4-(methylsulfonyl)phenoxy)piperidine-1-carbonyl)-N-(6-(4-(pentafluorosulfanyl)phenoxy)pyridin-3-yl)picolinamide] | < 1000 |
| COc1ccc(C(=O)C2CCN(C(=O)c3ccc(C(=O)Nc4ccc(Oc5ccc(S(F)(F)(F)(F)F)cc5)nc4)nc3)CC2)cc1 [Compound 7-3, 5-(4-(4-methoxybenzoyl)piperidine-1-carbonyl)-N-(6-(4-(pentafluorosulfanyl)phenoxy)pyridin-3-yl)picolinamide] | < 1000 |
| O=C(Nc1ccc(Oc2ccc(S(F)(F)(F)(F)F)cc2)nc1)c1ccc(C(=O)N2CCC(C(=O)c3ccc(N4CCCC4)cc3)CC2)cn1 [Compound 7-4, 5-(4-(4-(pyrrolidin-1-yl)benzoyl)piperidine-1-carbonyl)-N-(6-(4-(pentafluorosulfanyl)phenoxy)pyridin-3-yl)picolinamide] | < 1000 |
| N#Cc1ccc(OC2CCN(C(=O)c3ccc(C(=O)Nc4ccc(Oc5ccc(S(F)(F)(F)(F)F)cc5)nc4)nc3)CC2)cc1 [Compound 7-5, 5-(4-(4-cyanophenoxy)piperidine-1-carbonyl)-N-(6-(4-(pentafluorosulfanyl)phenoxy)pyridin-3-yl)picolinamide] | < 1000 |
| CC(C)S(=O)(=O)c1ccc(N2CCN(C(=O)c3ccc(C(=O)Nc4ccc(Oc5ccc(S(F)(F)(F)(F)F)cc5)nc4)nc3)CC2)cc1 [Compound 7-6, 5-(4-(4-(isopropylsulfonyl)phenyl)piperazine-1-carbonyl)-N-(6-(4-(pentafluorosulfanyl)phenoxy)pyridin-3-yl)picolinamide] | < 1000 |
| COc1ccc(C(=O)C2CCCN(C(=O)c3ccc(C(=O)NC4CCN(Cc5ccc(C#N)cc5)CC4)cn3)C2)cc1 (centres unmarked) [Compound 7-7, N-(1-(4-cyanobenzyl)piperidin-4-yl)-6-(3-(4-methoxybenzoyl)piperidine-1-carbonyl)nicotinamide] | 1000 to 10000 |
| COc1ccc(CN2CCC(NC(=O)c3ccc(C(=O)N4CCCC(C(=O)c5ccc(OC)cc5)C4)nc3)CC2)cc1 (centres unmarked) [Compound 7-8, 6-(3-(4-methoxybenzoyl)piperidine-1-carbonyl)-N-(1-(4-methoxybenzyl)piperidin-4-yl)nicotinamide] | 1000 to 10000 |
| COc1ccc(C(=O)C2CCCN(C(=O)c3ccc(C(=O)NC4CCN(Cc5ccc(F)cc5)CC4)cn3)C2)cc1 (centres unmarked) [Compound 7-9, N-(1-(4-fluorobenzyl)piperidin-4-yl)-6-(3-(4-methoxybenzoyl)piperidine-1-carbonyl)nicotinamide] | 1000 to 10000 |
| COc1ccc(C(=O)C2CCCN(C(=O)c3ccc(C(=O)Nc4ccc(Oc5ccc(F)cc5)nc4)cn3)C2)cc1 (centres unmarked) [Compound 7-10, N-(6-(4-fluorophenoxy)pyridin-3-yl)-6-(3-(4-methoxybenzoyl)piperidine-1-carbonyl)nicotinamide] | 1000 to 10000 |
| COc1ccc(C(=O)C2CCCN(C(=O)c3ccc(C(=O)Nc4ccc(Oc5ccc(C(C)=O)cc5)nc4)cn3)C2)cc1 (centres unmarked) [Compound 7-11, N-(6-(4-acetylphenoxy)pyridin-3-yl)-6-(3-(4-methoxybenzoyl)piperidine-1-carbonyl)nicotinamide] | 1000 to 10000 |
| Cc1cc(OC2CCN(C(=O)c3ccc(C(=O)NC4CCN(Cc5ccc(C#N)cc5)CC4)cn3)CC2)ccc1S(C)(=O)=O [Compound 7-13, N-(1-(4-cyanobenzyl)piperidin-4-yl)-6-(4-(3-methyl-4-(methylsulfonyl)phenoxy)piperidine-1-carbonyl) nicotinamide] | 1000 to 10000 |
| Cc1cc(OC2CCN(C(=O)c3ccc(C(=O)NC4CCN(Cc5ccc(OC(F)(F)F)cc5)CC4)cn3)CC2)ccc1S(C)(=O)=O [Compound 7-14, 6-(4-(3-methyl-4-(methylsulfonyl)phenoxy)piperidine-1-carbonyl)-N-(1-(4-(trifluoromethoxy)benzyl)piperidin-4-yl)nicotinamide] | 1000 to 10000 |
| Cc1cc(OC2CCN(C(=O)c3ccc(C(=O)Nc4ccc(Oc5ccc(C#N)cc5)nc4)cn3)CC2)ccc1S(C)(=O)=O [Compound 7-15, N-(6-(4-cyanophenoxy)pyridin-3-yl)-6-(4-(3-methyl-4-(methylsulfonyl)phenoxy)piperidine-1-carbonyl) nicotinamide] | 1000 to 10000 |
